Laboratory results as given in patent US20250381184A1, “PHARMACEUTICAL COMBINATION COMPRISING AN ANTI-CD3 ANTIBODY AND A CXCR3 ANTAGONIST” (Idorsia Pharmaceuticals Ltd, priority 2022, published 2025).

How the values were obtained:
[1] = COMPOUND plasma concentration in LPS-induced lung inflammation model; format: in vivo, Male DBA/1 mice; conditions: food admix, increasing doses
Experimental: Groups of 11 to 22 mice are given food mixed with different concentrations of COMPOUND (food admix) starting 3 days prior the LPS challenge and continuing during the whole duration of the experiment. The study consists of seven treatment groups: • 1. Control food admix (no COMPOUND), n=22 • 2. Food admix containing 0.006 mg COMPOUND per g food, n=12 • 3. Food admix containing 0.02 mg COMPOUND per g food, n=12 • 4. Food admix containing 0.06/0.07 mg COMPOUND per g food, n=24 • 5. Food admix containing 0.2 mg COMPOUND per g food, n=12 • 6. Food admix containing 0.6 mg COMPOUND per g food, n=11 • 7. Food admix containing 2 mg COMPOUND per g food, n=11
The experiment is terminated at day 3, 72 hours post LPS challenge. BAL is collected and number of T cells expressing CXCR3 quantified by flow cytometry as described in Pouzol et al., Front Pharmacol 2021,12(2991), doi: 10.3389/fphar.2021.748740. Plasma samples are taken for COMPOUND concentration determination.

NOD mice = experiment: Spontaneous T1D model (NOD mice), blood glucose values; format: in vivo; conditions: for % of reduction from Isotype/vehicle group: BGV at week 40 of age; for efficacy on the BGV: therapeutic setting
From the text: The efficacy of COMPOUND and of an anti-CD3 monoclonal antibody alone or in combination, or the combination of an anti-CD3 monoclonal antibody and anti-CXCL10 monoclonal antibody can be determined in inducible and spontaneous mouse models of T1D.
The efficacy of COMPOUND and the anti-CD3 monoclonal antibody alone or in combination can be determined in non-obese diabetic (NOD) mice, a spontaneous model for studying T1D (Chen et al. Front Endocrinol 2018, 9:51).
Blood glucose concentrations may be measured using a dynaValeo glucometer from dynamiCARE.
NOD mice usually develop diabetes defined as a blood glucose value (BGV)≥300 mg/dl between 13 and 30 weeks of age.
Groups of 14 to 17 mice are treated in a therapeutic setting, starting from the first measurement of diabetes (BGV≥300 mg/dL) for each mouse (day 1). Mice are randomized based on BGV and age at treatment initiation in five treatment groups: • Group 1: Isotype injected i.v., q.d., from day 1 to day 3+ control food from day 1 until end of the study (Isotype/vehicle) • Group 2: Isotype injected i.v., q.d., from day 1 to day 3+ food loaded with COMPOUND (0.6 mg/g of food) from day 1 until end of the study (Isotype/COMPOUND) • Group 3: Anti-CD3 antibody (30 μg), i.v., q.d., from day 1 to day 3+ control food from day 1 until end of the study (anti-CD3/vehicle) • Group 4: Anti-CD3 antibody (30 μg), i.v., q.d., from day 1 to day 3+ anti-CXCL10 antibody (100 μg), i.p., from day 4 to day 19 (administrations every 2nd/3rd day, 8 administations in total)+control food from day 1 until end of the study (anti-CD3/anti-CXCL10) • Group 5: Anti-CD3 antibody (30 μg), i.v., q.d., from day 1 to day 3+ food loaded with COMPOUND (0.6 mg/g of food) from day 1 until end of the study (anti-CD3/COMPOUND)
BGVs are assessed on a weekly basis and are compared between Isotype/control food-treated mice (group 1) and mice receiving the different treatments. For each mouse the experiment is terminated when the respective mouse reaches 40 weeks of age.
In this sub-analysis, only the mice not severely hyperglycemic at treatment initiation (defined as 300 mg/dL≤BGV≤400 mg/dL) were included in the study results.

[2] = system: CXCR3-expressing CD8+ T cell migration into the BAL; experiment: LPS-induced lung inflammation model, BAL CXCR3+CD8+ T cells by flow cytometry; format: in vivo, Male DBA/1 mice
[3] = system: patients with severe corticosteroid-refractory ulcerative colitis; conditions: 15 μg/kg/day reduced to 10 μg/kg/day; cited from earlier work

COMPOUND plasma concentration [1] | Molecule | % of reduction from Isotype/vehicle group (NOD mice; NOD mice, n = 14-17/group) | % of reduction from Isotype/vehicle group (NOD mice; non-severe diabetic NOD mice, n = 7-11/group) | efficacy on the BGV (NOD mice; NOD mice) | BGV at week 40 of age (mg/dL) (Mean ± SEM) (NOD mice; NOD mice, treatment from BGV≥300 mg/dL, n = 14-17/group) | BGV at week 40 of age (mg/dL) (Mean ± SEM) (NOD mice; non-severe diabetic NOD mice (300 mg/dL ≤ BGV ≤ 400 mg/dL at treatment initiation), n = 7-11/group) | efficacy on the BGV (NOD mice; non-severe diabetic NOD mice sub-analysis) | mice that showed disease progression (NOD mice; non-severe diabetic NOD mice, end of the study period) | CXCR3+CD8+ T cell migration into the BAL ([2]; dose 0.6 mg of COMPOUND/g of food) | BAL CXCR3+CD8+ T cells ([2]; preventive setting, food admix 0.006 to 2 mg COMPOUND per g food from 3 days prior LPS, BAL 72 hours post LPS challenge) | patients demonstrating a clinical response [3]
dose-dependent increase | Cc1ncn(CC(=O)N2CCN(c3sc(C(F)(F)F)nc3-c3cnc(C(F)(F)F)nc3)C[C@H]2CCO)n1 [COMPOUND, 1-{(R)-2-(2-Hydroxy-ethyl)-4-[2-trifluoromethyl-4-(2-trifluoromethyl-pyrimidin-5-yl)-thiazol-5-yl]-piperazin-1-yl}-2-(3-methyl-[1,2,4]triazol-1-yl)-ethanone] | 9% | 13% | minimal | 540.9 ± 35.4 mg/dL | 517.3 ± 63.9 mg/dL | minimal | 86% | significantly and maximally reduces | dose-dependent decrease | 
 | visilizumab: humanized IgG2 anti-CD3 antibody with two point mutations in its Fc portion for FcR non-binding properties (antibody, chains of the INN, looked up, V domains shown) VH: QVQLVQSGAEVKKPGASVKVSCKASGYTFISYTMHWVRQAPGQGLEWMGYINPRSGYTHYNQKLKDKATLTADKSASTAYMELSSLRSEDTAVYYCARSAYYDYDGFAYWGQGTLVTVSS VL: DIQMTQSPSSLSASVGDRVTITCSASSSVSYMNWYQQKPGKAPKRLIYDTSKLASGVPSRFSGSGSGTDFTLTISSLQPEDFATYYCQQWSSNPPTFGGGTKVEIK |  |  |  |  |  |  |  |  |  | 84%
